Experimental data taken from patent US20220257577A1, “EZH2 INHIBITION IN COMBINATION THERAPIES FOR THE TREATMENT OF CANCERS” (Constellation Pharmaceuticals, Inc., priority 2019, published 2022).
pEC50, pIC50: −log10 of the molar value. Like-named read-outs stand apart in the source and are kept apart here.

Legend:
[1] = system: A2780 (ovarian cancer) cell lines, A2780-P and A2780-CR; test: Antiproliferative activity in A2780 ovarian cancer cell lines; type: cell-based; conditions: cisplatin resistant A2780-CR versus parental A2780-P; FIG. 1A/1B
Experimental: (§1) Data shown are mean cell viability±standard error of the mean (SEM), n=2-3 and are representative of duplicate independent experiments.
(§2) Representative of duplicate independent experiments; mean±SD shown.
(§3) The sensitivity of multiple solid tumor cancer cell lines to the antiproliferative activity of Compound 1 with and without cisplatin was evaluated. […] Combination treatment with Compound 1 and cisplatin, however, led to greater than 50% reduction in growth.

[2] = system: HT1376 (bladder cancer) cell lines, HT1376-DMF and HT1376-CR; test: Antiproliferative activity in HT1376 bladder cancer cell lines; type: cell-based; conditions: cisplatin resistant HT1376-CR versus age-matched DMF control HT1376-DMF; FIG. 1A/1B
Experimental: as §1, §2, §3

EZH2 (PRC2) [3] = molecular target: T1, EZH2 (PRC2) (Homo sapiens, UniProt Q15910); test: Kinetic assays characterising binding to PRC2; conditions: from kinetic assays
T1 sequence (Q15910 whole entry): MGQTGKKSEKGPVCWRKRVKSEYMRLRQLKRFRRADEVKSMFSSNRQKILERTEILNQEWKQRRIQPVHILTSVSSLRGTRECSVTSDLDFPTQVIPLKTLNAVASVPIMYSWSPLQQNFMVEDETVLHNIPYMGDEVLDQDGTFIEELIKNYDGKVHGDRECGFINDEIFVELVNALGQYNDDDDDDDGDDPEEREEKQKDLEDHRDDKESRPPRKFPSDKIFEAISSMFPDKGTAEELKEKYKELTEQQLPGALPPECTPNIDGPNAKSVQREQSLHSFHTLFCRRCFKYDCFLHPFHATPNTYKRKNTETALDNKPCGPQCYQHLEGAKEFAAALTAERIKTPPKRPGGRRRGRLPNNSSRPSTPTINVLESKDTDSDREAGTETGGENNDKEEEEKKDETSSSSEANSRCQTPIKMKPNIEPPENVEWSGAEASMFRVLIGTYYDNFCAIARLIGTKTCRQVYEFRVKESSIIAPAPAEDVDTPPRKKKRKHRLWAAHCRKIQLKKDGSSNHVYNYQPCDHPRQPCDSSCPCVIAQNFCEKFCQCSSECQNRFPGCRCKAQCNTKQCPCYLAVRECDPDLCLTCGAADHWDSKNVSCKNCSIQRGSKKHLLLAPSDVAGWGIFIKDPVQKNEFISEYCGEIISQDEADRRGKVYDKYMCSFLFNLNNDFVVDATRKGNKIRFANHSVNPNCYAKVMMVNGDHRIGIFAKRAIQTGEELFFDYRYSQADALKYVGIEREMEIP
T1 sequence (O75530 whole entry partner): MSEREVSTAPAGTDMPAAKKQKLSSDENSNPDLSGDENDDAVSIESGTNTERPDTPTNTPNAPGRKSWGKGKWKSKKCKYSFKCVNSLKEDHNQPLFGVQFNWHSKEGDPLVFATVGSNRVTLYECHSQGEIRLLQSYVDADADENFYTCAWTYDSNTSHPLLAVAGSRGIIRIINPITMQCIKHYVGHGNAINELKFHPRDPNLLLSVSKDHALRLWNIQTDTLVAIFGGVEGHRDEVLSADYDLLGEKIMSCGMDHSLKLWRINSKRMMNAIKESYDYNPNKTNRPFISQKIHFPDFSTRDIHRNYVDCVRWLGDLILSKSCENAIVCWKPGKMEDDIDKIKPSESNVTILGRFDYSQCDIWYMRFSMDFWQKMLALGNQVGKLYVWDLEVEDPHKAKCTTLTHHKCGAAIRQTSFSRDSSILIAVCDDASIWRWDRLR
T1 sequence (Q15022 whole entry partner): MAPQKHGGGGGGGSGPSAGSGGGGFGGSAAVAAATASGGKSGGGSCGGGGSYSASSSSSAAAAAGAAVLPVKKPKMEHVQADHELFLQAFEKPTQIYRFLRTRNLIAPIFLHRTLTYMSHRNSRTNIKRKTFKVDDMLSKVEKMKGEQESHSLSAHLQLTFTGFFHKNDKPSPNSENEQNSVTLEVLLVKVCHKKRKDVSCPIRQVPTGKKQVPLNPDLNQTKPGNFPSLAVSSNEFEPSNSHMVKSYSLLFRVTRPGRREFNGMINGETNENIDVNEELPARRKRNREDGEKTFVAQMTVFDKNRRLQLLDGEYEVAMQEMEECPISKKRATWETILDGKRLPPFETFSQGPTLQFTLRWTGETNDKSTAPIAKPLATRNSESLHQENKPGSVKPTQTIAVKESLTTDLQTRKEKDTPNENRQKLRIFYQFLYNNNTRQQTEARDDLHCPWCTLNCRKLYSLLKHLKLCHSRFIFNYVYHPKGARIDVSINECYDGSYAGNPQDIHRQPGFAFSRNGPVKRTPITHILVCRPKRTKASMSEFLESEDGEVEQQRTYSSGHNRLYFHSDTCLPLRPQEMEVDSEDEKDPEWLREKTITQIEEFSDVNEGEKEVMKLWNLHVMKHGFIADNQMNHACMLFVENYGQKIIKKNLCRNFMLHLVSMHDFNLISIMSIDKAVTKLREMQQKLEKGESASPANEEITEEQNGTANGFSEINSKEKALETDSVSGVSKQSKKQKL
T1 sequence (Q09028 whole entry partner): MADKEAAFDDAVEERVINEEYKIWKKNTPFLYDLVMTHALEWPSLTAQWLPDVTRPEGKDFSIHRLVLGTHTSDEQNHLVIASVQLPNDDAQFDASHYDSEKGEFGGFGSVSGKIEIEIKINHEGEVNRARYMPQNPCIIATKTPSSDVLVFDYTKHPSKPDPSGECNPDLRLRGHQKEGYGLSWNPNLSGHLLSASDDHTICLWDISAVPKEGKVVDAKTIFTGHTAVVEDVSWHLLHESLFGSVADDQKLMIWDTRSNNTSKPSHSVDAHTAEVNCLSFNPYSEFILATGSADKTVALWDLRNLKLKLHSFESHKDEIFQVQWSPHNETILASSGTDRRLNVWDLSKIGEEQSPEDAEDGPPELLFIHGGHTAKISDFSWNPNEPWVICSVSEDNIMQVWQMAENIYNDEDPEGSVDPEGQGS
Experimental: In biochemical assays, Compound 1 suppresses catalytic activity of wild-type and Y641N mutant EZH2-containing PRC2 complex, as well as EZH1-containing PRC2 complex, with half-maximal inhibitory concentrations (IC50) values of 0.02 and 0.03 nM for wild-type and Y641N mutant EZH2, respectively, and 0.06 nM for EZH1. See e.g., PCT/US2019/027932. […] Based-upon the kinetic analysis it was determined that Compound 1 binds to PRC2 with a long residence time (approximately 101 days). See e.g., PCT/US2019/027932.

[4] = system: H3K27me3 in 639V bladder cancer cell line; test: Global H3K27me3 intracellular levels, 639V; type: cell-based; conditions: Homo sapiens, 72 h, Day 3, read-out: EC50, reduction of global H3K27me3 levels
[5] = system: H3K27me3 in HT1197 bladder cancer cell line; test: Global H3K27me3 intracellular levels, HT1197; type: cell-based; conditions: Homo sapiens, 72 h; HT1197, Day 3; read-out: EC50, reduction of global H3K27me3 levels
[6] = system: H3K27me3 in ovarian cancer TOV21G cell line; test: Global H3K27me3 intracellular levels, TOV21G; type: cell-based; conditions: Homo sapiens, 72 h, Day 3, read-out: EC50, reduction of global H3K27me3 levels
[7] = system: gene expression in bladder cancer cell lines; test: RNA-sequencing of bladder cancer cell lines; type: cell-based; conditions: treatment for 4 days
Description: Reduction in H3K27me3 levels result in changes in gene expression. RNA-sequencing of bladder cancer cell lines after treatment with Compound 1 for 4 days results in significant changes in the expression levels of multiple genes. […] The increase in gene expression is both dose and time dependent, with increasing expression observed at higher concentrations of Compound 1 and at later timepoints. This contrasts with reductions of H3K27me3 as methyl mark changes were observed after 1 day of Compound 1 treatment. […] See Yang X, Karuturi R K, Sun F, et al. CDKN1C (p57) is a direct target of EZH2 and suppressed by multiple epigenetic mechanisms in breast cancer cells. PLoS One. 2009; 4(4):e5011. Low expression of CDKN1C is seen in advanced bladder and breast cancers and is correlated with poor prognosis. See Yang above and Hoffmann M J, Florl A R, Seifert H H, et al. Multiple mechanisms downregulate CDKN1C in human bladder cancer. Int J Cancer. 2005 Apr. 10; 114(3):406-13.

HT1376 tumors = test: Antitumor effect in HT1376 tumors; type: in vivo; conditions: HT1376 tumors in CB17 SCID mice; FIG. 4
Description: FIG. 4 illustrates the antitumor effect of Compound 1, cisplatin, and the combination of both in HT1376 tumors in CB17 SCID mice. Data shown are mean tumor size±SEM, n=6. PO=oral administration, IV=intravenous administration, QD=once per day, QW=once per week.

[8] = molecular target: wild-type EZH2-containing PRC2 complex (Homo sapiens, UniProt Q15910); conditions: see PCT/US2019/027932, read-out: half-maximal inhibitory concentration (IC50), catalytic activity; cited from earlier work
Sequence of wild-type EZH2-containing PRC2 complex (Q15910 whole entry): as the sequence (Q15910 whole entry) above
Sequence of wild-type EZH2-containing PRC2 complex (O75530 whole entry partner): as the sequence (O75530 whole entry partner) above
Sequence of wild-type EZH2-containing PRC2 complex (Q15022 whole entry partner): as the sequence (Q15022 whole entry partner) above
Sequence of wild-type EZH2-containing PRC2 complex (Q09028 whole entry partner): as the sequence (Q09028 whole entry partner) above

[9] = molecular target: Y641N mutant EZH2-containing PRC2 complex (Homo sapiens, UniProt Q15910, Y641N); conditions: see PCT/US2019/027932, read-out: half-maximal inhibitory concentration (IC50), catalytic activity; cited from earlier work
Sequence of Y641N mutant EZH2-containing PRC2 complex (Q15910 whole entry Y641N): as the sequence (Q15910 whole entry) above, with Y641N counted along it
Sequence of Y641N mutant EZH2-containing PRC2 complex (O75530 whole entry partner): as the sequence (O75530 whole entry partner) above
Sequence of Y641N mutant EZH2-containing PRC2 complex (Q15022 whole entry partner): as the sequence (Q15022 whole entry partner) above
Sequence of Y641N mutant EZH2-containing PRC2 complex (Q09028 whole entry partner): as the sequence (Q09028 whole entry partner) above

[10] = molecular target: EZH1-containing PRC2 complex (Homo sapiens, UniProt Q92800); conditions: see PCT/US2019/027932, read-out: half-maximal inhibitory concentration (IC50), catalytic activity; cited from earlier work
Sequence of EZH1-containing PRC2 complex (Q92800 whole entry): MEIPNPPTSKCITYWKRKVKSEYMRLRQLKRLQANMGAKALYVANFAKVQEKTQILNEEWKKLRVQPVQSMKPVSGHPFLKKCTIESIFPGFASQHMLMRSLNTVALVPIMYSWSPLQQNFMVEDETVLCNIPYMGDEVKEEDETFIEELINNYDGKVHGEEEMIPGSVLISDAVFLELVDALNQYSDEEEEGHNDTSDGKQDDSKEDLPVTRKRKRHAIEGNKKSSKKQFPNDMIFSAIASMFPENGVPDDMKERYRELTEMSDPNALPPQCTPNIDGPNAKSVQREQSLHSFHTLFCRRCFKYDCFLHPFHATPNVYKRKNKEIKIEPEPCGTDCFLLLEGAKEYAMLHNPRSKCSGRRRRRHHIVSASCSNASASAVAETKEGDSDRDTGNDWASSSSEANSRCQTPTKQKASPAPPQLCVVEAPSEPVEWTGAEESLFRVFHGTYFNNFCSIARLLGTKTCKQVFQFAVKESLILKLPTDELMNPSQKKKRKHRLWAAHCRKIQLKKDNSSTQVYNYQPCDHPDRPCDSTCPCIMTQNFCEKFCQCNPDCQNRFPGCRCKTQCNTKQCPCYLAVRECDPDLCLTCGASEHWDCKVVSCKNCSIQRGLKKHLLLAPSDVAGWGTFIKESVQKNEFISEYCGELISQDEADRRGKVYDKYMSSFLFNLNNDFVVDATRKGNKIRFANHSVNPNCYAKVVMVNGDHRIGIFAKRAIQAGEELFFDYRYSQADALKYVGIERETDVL
Sequence of EZH1-containing PRC2 complex (O75530 whole entry partner): as the sequence (O75530 whole entry partner) above
Sequence of EZH1-containing PRC2 complex (Q15022 whole entry partner): as the sequence (Q15022 whole entry partner) above
Sequence of EZH1-containing PRC2 complex (Q09028 whole entry partner): as the sequence (Q09028 whole entry partner) above

EZH2 (PRC2) [11] = molecular target: T1, EZH2 (PRC2); conditions: binding to PRC2 complex, see PCT/US2019/027932, cited from earlier work
[12] = system: H3K27me3 in HeLa (wild-type EZH2-containing cervical cancer cell line); conditions: after 4 days of treatment, see PCT/US2019/027932, read-out: EC50, reduction of global H3K27me3 levels; cited from earlier work

Row | SMILES | sensitivity (cell viability) to single treatment [1] | sensitivity (cell viability) to single treatment [2] | selectivity for EZH2 over EZH1 (EZH2 (PRC2) [3]) | pEC50 [4] | pEC50 [5] | pEC50 [6] | CDKN1C (p57, Kip2) gene expression [7] | tumor growth (HT1376 tumors) | pIC50 [8] | pIC50 [9] | pIC50 [10] | residence time (EZH2 (PRC2) [11]) | residence time (EZH2 (PRC2) [11]; listed as 7-chloro-2-(4-(3-methoxyazetidin-1-yl)cyclohexyl)-2,4-dimethyl-N-(6-methyl-4-(m))) [days] | pEC50 [12]
1 | N.N.[Cl][Pt][Cl] [cisplatin, reference compound] | less sensitive | less sensitive |  |  |  |  |  |  |  |  |  |  |  | 
2 | COC1CN(C2CCC(C3(C)Oc4c(Cl)cc(C(=O)NCc5c(SC)cc(C)[nH]c5=O)c(C)c4O3)CC2)C1 (single isomer, unassigned) [Compound 1, 7-chloro-2-(4-(3-methoxyazetidin-1-yl)cyclohexyl)-2,4-dimethyl-N-((6-methyl-4-(methylthio)-2-oxo-1,2-dihydropyridin-3-yl)methyl)benzo[d][1,3]dioxole-5-carboxamide] | strongly sensitive | strongly sensitive | approximately 70 fold | 10.05 | 9.85 | 9.59 | highly upregulated | effective in reducing tumor growth | 10.70 | 10.52 | 10.22 | approximately 101 days | ~101 | 9.40
